Measurements published in patent US20080009418A1, “Selective Inhibitors” (Alchemia LTD., priority 2004, published 2008).

Legend:
Human κ-Opioid (KOP) = molecular target: T1, Human κ-Opioid (KOP) (Homo sapiens, UniProt P41145); assay: Radioligand binding, human κ-opioid (KOP) membranes, filtration, [3H]-Diprenorphine; conditions: compound at 10 μM, [3H]-Diprenorphine
T1 construct: purchased Perkin Elmer Biosignal
Outline: (§1)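 Filtration binding on cloned human receptor membranes (1 Unit/well), [125I]-Substance P for NK1 and [3H]-Diprenorphine for KOP, 1 h at room temperature. Filters PEI-presoaked, washed with cold 50 mM Tris-HCl pH 7.4, counted by scintillation; percent inhibition calculated, reference ligand defining non-specific binding.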

Human Melanocortin (MC3) = molecular target: T2, Human Melanocortin (MC3) (Homo sapiens, UniProt P41968); assay: Radioligand binding, human melanocortin MC3 membranes, FlashPlate, [125I]-NDP-αMSH; conditions: compound at 10 μM, [125I]-NDP-αMSH
T2 construct: purchased Perkin Elmer Biosignal
T2 sequence (P41968 whole entry): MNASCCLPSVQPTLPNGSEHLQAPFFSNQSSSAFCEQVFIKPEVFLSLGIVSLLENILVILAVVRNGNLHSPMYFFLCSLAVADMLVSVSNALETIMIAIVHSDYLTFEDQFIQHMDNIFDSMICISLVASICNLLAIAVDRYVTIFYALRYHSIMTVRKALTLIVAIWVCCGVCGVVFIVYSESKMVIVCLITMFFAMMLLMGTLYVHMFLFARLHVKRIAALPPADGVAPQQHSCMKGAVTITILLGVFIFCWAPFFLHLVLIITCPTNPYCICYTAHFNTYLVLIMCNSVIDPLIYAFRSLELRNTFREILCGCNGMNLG
Outline: (§2)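 Cloned human receptor membranes were coated onto FlashPlate wells and incubated with radioligand and compound (added from a 0.5 mM DMSO daughter plate) for 1 hour at room temperature in the dark. Scintillation counting gave percent inhibition, with DMSO defining total and reference ligand defining non-specific binding.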

Human neurokinin (NK1) = molecular target: T3, Human neurokinin (NK1) (Homo sapiens, UniProt P25103); assay: Radioligand binding, human neurokinin NK1 membranes, filtration, [125I]-Substance P; conditions: compound at 10 μM, [125I]-Substance P
T3 construct: purchased Perkin Elmer Biosignal
T3 sequence (P25103 whole entry): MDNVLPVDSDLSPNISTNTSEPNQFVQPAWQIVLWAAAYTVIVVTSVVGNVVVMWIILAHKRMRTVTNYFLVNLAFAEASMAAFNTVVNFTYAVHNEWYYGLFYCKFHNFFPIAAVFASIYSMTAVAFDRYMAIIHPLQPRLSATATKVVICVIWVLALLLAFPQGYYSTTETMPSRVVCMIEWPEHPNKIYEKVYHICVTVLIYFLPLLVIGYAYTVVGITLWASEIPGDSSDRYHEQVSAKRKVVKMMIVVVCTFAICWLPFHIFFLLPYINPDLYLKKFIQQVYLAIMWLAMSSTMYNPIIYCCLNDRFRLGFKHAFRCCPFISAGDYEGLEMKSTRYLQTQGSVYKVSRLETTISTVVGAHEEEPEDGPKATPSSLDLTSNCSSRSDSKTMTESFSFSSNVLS
Outline: as §1

Human melanocortin (MC5) = molecular target: T4, Human melanocortin (MC5) (Homo sapiens, UniProt P33032); assay: Radioligand binding, human melanocortin MC5 membranes, FlashPlate, [125I]-NDP-αMSH; conditions: compound at 10 μM, [125I]-NDP-αMSH
T4 construct: purchased Perkin Elmer Biosignal
T4 sequence (P33032 whole entry): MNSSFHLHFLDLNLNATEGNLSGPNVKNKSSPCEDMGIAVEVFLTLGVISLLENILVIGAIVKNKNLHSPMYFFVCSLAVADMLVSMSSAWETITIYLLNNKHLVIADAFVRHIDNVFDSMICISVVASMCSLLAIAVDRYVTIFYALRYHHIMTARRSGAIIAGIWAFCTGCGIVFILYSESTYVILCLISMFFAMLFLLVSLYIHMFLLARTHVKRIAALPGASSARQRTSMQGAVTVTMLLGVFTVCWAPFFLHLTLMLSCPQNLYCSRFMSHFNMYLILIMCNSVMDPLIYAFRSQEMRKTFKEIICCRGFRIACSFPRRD
Outline: as §2

[1] = molecular target: T5, Human melanin-concentrating hormone (MCH1) (Homo sapiens, UniProt Q99705); assay: Radioligand binding, human melanin-concentrating hormone MCH1 membranes, FlashPlate, [125I]-S36057; conditions: compound at 10 μM; for A6: inhibition of radioligand binding, human melanin-concentrating hormone (MCH1): [125I]-S36057
T5 construct: purchased Perkin Elmer Biosignal
T5 sequence (Q99705 whole entry): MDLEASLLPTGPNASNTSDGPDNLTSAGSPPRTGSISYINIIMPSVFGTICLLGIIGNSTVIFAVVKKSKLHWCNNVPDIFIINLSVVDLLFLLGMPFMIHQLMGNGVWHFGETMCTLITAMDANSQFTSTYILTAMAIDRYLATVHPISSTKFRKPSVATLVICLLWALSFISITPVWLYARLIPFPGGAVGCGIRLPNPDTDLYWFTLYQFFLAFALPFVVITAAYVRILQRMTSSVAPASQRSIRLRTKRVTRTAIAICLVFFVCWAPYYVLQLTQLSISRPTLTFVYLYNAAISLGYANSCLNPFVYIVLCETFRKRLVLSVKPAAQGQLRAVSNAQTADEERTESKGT
Outline: as §2

Human opioid (ORL1) = molecular target: T6, Human opioid (ORL1) (Homo sapiens, UniProt P41146); assay: Radioligand binding, human opioid ORL1 membranes, FlashPlate, [125I]-Nociceptin; conditions: compound at 10 μM, [125I]-Nociceptin
T6 construct: purchased Perkin Elmer Biosignal
T6 sequence (P41146 whole entry): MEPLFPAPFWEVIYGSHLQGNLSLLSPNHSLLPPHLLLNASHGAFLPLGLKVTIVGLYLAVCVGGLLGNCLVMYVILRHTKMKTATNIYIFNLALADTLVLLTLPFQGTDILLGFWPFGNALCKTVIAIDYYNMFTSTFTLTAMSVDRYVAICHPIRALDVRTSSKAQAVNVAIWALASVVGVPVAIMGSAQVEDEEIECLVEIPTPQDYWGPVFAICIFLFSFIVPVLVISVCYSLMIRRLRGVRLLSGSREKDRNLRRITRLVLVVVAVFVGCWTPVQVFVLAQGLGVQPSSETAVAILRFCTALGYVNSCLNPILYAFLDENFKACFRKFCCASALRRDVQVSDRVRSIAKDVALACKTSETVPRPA
Outline: as §2

Human μ-opioid (MOP) = molecular target: T7, Human μ-opioid (MOP) (Homo sapiens, UniProt P35372); assay: Radioligand binding, human μ-opioid (MOP) membranes, FlashPlate, [3H]-Naloxone; conditions: compound at 10 μM, [3H]-Naloxone
T7 construct: purchased Perkin Elmer Biosignal
T7 sequence (P35372 whole entry): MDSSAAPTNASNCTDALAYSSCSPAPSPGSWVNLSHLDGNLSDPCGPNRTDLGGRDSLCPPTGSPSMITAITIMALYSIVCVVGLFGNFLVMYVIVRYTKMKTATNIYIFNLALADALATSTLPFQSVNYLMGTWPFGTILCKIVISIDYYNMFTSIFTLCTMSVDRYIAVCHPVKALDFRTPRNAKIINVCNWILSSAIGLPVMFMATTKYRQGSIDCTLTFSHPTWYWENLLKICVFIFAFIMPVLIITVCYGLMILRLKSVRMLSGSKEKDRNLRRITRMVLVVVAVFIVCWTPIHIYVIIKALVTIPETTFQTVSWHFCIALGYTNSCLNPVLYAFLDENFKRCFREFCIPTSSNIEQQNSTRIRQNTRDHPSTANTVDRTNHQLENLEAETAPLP
Outline: as §2

Human δ-opioid (DOP) = molecular target: T8, Human δ-opioid (DOP) (Homo sapiens, UniProt P41143); assay: Radioligand binding, human δ-opioid (DOP) membranes, FlashPlate, [3H]-Bremazocine; conditions: compound at 10 μM, [3H]-Bremazocine
T8 construct: purchased Perkin Elmer Biosignal
T8 sequence (P41143 whole entry): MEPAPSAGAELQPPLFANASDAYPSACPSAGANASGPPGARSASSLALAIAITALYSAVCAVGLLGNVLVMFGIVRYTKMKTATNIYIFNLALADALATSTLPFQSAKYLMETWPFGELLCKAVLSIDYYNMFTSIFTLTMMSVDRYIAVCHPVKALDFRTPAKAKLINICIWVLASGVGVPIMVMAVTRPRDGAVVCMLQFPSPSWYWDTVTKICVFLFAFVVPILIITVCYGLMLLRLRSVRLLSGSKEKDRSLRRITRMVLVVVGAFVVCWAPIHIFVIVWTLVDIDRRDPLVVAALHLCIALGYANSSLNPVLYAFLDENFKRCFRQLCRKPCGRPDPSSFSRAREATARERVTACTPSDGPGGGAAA
Outline: as §2

Human Melanocortin (MC4) = molecular target: T9, Human Melanocortin (MC4) (Homo sapiens, UniProt P32245); assay: Radioligand binding, human melanocortin MC4 membranes, FlashPlate, [125I]-NDP-αMSH; conditions: compound at 10 μM, [125I]-NDP-αMSH
T9 construct: purchased Perkin Elmer Biosignal
T9 sequence (P32245 whole entry): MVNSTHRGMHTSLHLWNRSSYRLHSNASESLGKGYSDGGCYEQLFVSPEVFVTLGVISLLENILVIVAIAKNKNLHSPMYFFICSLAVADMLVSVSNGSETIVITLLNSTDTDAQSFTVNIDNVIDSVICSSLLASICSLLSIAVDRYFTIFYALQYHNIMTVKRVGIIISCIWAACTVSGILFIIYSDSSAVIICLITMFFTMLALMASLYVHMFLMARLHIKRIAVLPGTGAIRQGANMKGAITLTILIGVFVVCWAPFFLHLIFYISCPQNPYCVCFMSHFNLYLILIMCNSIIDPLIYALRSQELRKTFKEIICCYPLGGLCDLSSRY
Outline: as §2

[2] = molecular target: T10, Human neuropeptide Y (NPY-Y1) (Homo sapiens, UniProt P25929); assay: Radioligand binding, human neuropeptide Y NPY-Y1 membranes, FlashPlate, [125I]-PYY; conditions: compound at 10 μM, [125I]-PYY
T10 construct: purchased Perkin Elmer Biosignal
T10 sequence (P25929 1-384): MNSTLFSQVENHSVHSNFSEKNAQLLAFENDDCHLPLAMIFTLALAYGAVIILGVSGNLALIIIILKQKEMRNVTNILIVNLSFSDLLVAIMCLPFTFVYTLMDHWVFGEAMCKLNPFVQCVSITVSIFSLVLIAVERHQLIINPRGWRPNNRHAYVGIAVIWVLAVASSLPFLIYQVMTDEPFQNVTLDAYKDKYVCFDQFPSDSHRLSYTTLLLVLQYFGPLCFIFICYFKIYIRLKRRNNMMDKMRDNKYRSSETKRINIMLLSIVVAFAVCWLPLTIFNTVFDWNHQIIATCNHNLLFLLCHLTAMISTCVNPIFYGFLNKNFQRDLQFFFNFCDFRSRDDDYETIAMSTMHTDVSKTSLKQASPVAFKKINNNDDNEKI
Outline: as §2

Mouse urotensin (mUR2) = molecular target: T11, Mouse urotensin (mUR2) (Mus musculus, UniProt Q8VIH9); assay: Radioligand binding, mouse urotensin mUR2 membranes, FlashPlate, [125I]-Urotensin II; conditions: compound at 10 μM, [125I]-Urotensin II
T11 construct: purchased Perkin Elmer Biosignal
T11 sequence (Q8VIH9 1-385): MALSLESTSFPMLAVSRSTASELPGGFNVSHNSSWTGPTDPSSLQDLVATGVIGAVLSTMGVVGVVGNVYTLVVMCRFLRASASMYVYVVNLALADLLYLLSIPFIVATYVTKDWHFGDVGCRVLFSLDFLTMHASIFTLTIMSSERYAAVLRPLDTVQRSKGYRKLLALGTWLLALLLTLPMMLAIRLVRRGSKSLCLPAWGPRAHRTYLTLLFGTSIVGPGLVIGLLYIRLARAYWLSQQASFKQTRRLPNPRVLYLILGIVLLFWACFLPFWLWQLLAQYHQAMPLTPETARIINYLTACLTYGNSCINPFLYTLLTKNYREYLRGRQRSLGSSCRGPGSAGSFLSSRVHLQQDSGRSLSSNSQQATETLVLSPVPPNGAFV
Outline: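 Cloned mouse urotensin (mUR2) receptor membranes from Perkin Elmer Biosignal were immobilized in FlashPlate microplates using a proprietary coating. Each well got 19.5 μl buffer, then 0.5 μl of DMSO, reference ligand, or compound. Adding 5 μl of [125I]-Urotensin II, diluted to 5× final concentration in binding buffer, started binding. Plates were sealed with TopSeal-A and incubated 1 hour at room temperature in the dark. Wells were counted for 30 seconds each on a TopCount after a 60-second delay, and percentage inhibition was calculated.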

T1 sequence (P41145 whole entry): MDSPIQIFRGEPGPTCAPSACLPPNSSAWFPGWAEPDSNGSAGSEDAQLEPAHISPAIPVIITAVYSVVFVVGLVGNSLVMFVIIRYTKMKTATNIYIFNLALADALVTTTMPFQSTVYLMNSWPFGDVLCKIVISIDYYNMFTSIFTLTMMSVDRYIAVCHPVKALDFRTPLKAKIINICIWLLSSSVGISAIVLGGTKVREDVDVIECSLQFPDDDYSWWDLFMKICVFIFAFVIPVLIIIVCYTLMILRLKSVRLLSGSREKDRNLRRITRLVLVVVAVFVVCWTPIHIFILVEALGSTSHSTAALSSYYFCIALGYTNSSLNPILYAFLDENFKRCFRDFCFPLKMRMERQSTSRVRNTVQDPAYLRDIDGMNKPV

SMILES	A2: inhibition of radioligand binding, human κ-opioid (KOP) (Human κ-Opioid (KOP))	A3: inhibition of radioligand binding, human melanocortin (MC3) (Human Melanocortin (MC3))	A8: inhibition of radioligand binding, human neurokinin (NK1) (Human neurokinin (NK1))	A5: inhibition of radioligand binding, human melanocortin (MC5) (Human melanocortin (MC5))	A6: inhibition of radioligand binding, human melanin-concentrating hormone (MCH1) [1]	A10: inhibition of radioligand binding, human opioid (ORL1) (Human opioid (ORL1))	A7: inhibition of radioligand binding, human μ-opioid (MOP) (Human μ-opioid (MOP))	A1: inhibition of radioligand binding, human δ-opioid (DOP) (Human δ-opioid (DOP))	A4: inhibition of radioligand binding, human melanocortin (MC4) (Human Melanocortin (MC4))	A9: inhibition of radioligand binding, human neuropeptide Y (NPY-Y1) [2]	A11: inhibition of radioligand binding, mouse urotensin (mUR2) (Mouse urotensin (mUR2))	further results
NCCC(=O)NC1C(OCc2ccc(Cl)cc2)OC(COCc2ccccc2)C(O)C1OCc1ccccc1 (single isomer, unassigned) [compound 485]	− (“−” indicates less than 50% inhibition at 10 μM)	− (“−” indicates less than 50% inhibition at 10 μM)	+ (“+” indicates greater than 50% inhibition at 10 μM)	− (“−” indicates less than 50% inhibition at 10 μM)	− (“−” indicates less than 50% inhibition at 10 μM)	− (“−” indicates less than 50% inhibition at 10 μM)	− (“−” indicates less than 50% inhibition at 10 μM)	− (“−” indicates less than 50% inhibition at 10 μM)	− (“−” indicates less than 50% inhibition at 10 μM)	− (“−” indicates less than 50% inhibition at 10 μM)	− (“−” indicates less than 50% inhibition at 10 μM)	
COCC1OC(OCc2ccc(Cl)cc2)C(NC(=O)CN)C(OCc2ccc(-c3ccccc3)cc2)C1O (stereo not drawn) [compound 205]												A2: inhibition of radioligand binding (Human κ-Opioid (KOP); filtration): − (“−” indicates less than 50% inhibition at 10 μM); A3: inhibition of radioligand binding (Human Melanocortin (MC3); FlashPlate): − (“−” indicates less than 50% inhibition at 10 μM); A8: inhibition of radioligand binding (Human neurokinin (NK1); filtration): + (“+” indicates greater than 50% inhibition at 10 μM); A5: inhibition of radioligand binding (Human melanocortin (MC5); FlashPlate): + (“+” indicates greater than 50% inhibition at 10 μM); A6: inhibition of radioligand binding ([1]; [125I]-S36057, FlashPlate): − (“−” indicates less than 50% inhibition at 10 μM); A10: inhibition of radioligand binding (Human opioid (ORL1); FlashPlate): − (“−” indicates less than 50% inhibition at 10 μM); A7: inhibition of radioligand binding (Human μ-opioid (MOP); FlashPlate): − (“−” indicates less than 50% inhibition at 10 μM); A1: inhibition of radioligand binding (Human δ-opioid (DOP); FlashPlate): − (“−” indicates less than 50% inhibition at 10 μM); A4: inhibition of radioligand binding (Human Melanocortin (MC4); FlashPlate): + (“+” indicates greater than 50% inhibition at 10 μM); A9: inhibition of radioligand binding ([2]; FlashPlate): − (“−” indicates less than 50% inhibition at 10 μM); A11: inhibition of radioligand binding (Mouse urotensin (mUR2); FlashPlate): − (“−” indicates less than 50% inhibition at 10 μM)
CSC1OC(COCc2ccccc2)C(O)C(OCc2cccc(N)c2)C1NC(=O)Cc1c[nH]c2ccccc12 (stereo not drawn) [compound 322]	− (“−” indicates less than 50% inhibition at 10 μM)	− (“−” indicates less than 50% inhibition at 10 μM)	+ (“+” indicates greater than 50% inhibition at 10 μM)	− (“−” indicates less than 50% inhibition at 10 μM)	− (“−” indicates less than 50% inhibition at 10 μM)	− (“−” indicates less than 50% inhibition at 10 μM)	− (“−” indicates less than 50% inhibition at 10 μM)	− (“−” indicates less than 50% inhibition at 10 μM)	− (“−” indicates less than 50% inhibition at 10 μM)	− (“−” indicates less than 50% inhibition at 10 μM)	− (“−” indicates less than 50% inhibition at 10 μM)	
